One may read the Ki as a dissociation constant, usually derived from enzyme kinetics or from competition with a known ligand.

Experiment [1] concerns the target T1, Gastrin/cholecystokinin type B receptor (Homo sapiens, UniProt P32239).
T1 sequence (P32239 whole entry): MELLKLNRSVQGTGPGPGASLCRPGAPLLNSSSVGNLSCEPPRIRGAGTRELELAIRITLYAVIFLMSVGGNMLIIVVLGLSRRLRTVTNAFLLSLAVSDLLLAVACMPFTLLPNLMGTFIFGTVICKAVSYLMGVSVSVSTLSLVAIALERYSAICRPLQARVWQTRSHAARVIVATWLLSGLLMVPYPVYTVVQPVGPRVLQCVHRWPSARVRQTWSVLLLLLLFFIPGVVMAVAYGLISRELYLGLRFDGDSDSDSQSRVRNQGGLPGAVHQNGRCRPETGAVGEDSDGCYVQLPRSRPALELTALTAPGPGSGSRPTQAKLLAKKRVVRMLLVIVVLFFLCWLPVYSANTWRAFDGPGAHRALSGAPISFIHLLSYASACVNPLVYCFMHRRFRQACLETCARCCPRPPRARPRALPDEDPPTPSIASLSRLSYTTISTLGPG
Description: Displacement of [125I]BH-CCK-8S from human recombinant CCK2 receptor expressed in NIH3T3 cells. For orientation: Displacement assays read how much labelled ligand stays bound in the presence of the test substance.

Experiment [2] concerns the target T2, Cholecystokinin receptor type A (Homo sapiens, UniProt P32238).
T2 sequence (P32238 whole entry): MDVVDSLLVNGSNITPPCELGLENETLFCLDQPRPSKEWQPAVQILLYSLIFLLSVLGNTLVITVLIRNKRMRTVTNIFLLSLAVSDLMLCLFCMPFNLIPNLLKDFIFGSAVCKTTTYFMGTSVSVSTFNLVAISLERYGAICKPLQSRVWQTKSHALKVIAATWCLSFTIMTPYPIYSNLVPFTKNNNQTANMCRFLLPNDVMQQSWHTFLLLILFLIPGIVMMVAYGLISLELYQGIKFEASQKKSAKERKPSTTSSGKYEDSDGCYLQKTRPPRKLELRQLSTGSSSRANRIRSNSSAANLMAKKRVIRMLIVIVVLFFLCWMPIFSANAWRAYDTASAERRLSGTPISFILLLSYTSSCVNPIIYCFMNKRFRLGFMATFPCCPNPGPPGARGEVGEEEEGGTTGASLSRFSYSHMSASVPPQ
Description: Displacement of [3H]L-364718 from human recombinant CCK1 receptor expressed in PC3 cells. The class given is cell-based, PC-3.

The target in experiment [3] is T2, Cholecystokinin receptor type A. Put plainly: Displacement of [3H]L-364718 from human recombinant CCK1 receptor expressed in CHOK1 cells. The class given is cell-based, CHO-K1.
Experiment [4] has as its target T3, Gastrin/cholecystokinin type B receptor (Canis lupus familiaris, UniProt P30552).
T3 sequence (P30552 whole entry): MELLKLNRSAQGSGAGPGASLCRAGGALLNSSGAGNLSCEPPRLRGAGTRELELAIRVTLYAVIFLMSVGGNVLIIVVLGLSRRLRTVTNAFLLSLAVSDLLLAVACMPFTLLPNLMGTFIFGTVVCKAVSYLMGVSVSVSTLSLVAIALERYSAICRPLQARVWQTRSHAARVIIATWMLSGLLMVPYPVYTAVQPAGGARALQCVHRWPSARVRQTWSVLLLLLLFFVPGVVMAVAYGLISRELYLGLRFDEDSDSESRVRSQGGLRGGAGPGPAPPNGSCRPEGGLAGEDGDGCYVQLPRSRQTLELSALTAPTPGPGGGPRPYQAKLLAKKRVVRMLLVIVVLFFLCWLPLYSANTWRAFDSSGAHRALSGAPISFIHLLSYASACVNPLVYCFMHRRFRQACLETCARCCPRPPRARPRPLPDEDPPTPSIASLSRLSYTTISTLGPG
Put plainly: Displacement of [125I]BH-[…] from CCK2 receptor in canine gastric mucosa. Format: tissue-based.

Experiment [5] addresses T4, Gastrin/cholecystokinin type B receptor (Rattus norvegicus, UniProt P30553).
T4 sequence (P30553 whole entry): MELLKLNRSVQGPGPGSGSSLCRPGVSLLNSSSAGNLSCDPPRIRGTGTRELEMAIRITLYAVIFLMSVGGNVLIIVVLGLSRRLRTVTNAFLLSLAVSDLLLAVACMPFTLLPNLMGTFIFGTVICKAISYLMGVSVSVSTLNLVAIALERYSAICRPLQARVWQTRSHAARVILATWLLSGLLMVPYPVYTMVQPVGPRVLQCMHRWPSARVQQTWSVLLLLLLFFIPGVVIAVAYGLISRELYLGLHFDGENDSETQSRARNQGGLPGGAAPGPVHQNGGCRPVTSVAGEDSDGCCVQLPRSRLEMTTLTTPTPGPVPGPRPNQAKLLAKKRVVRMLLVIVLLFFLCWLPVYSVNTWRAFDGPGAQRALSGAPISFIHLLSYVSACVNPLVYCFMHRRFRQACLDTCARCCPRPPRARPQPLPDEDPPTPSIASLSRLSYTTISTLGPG
Description: Antagonist activity at CCK2 receptor in perfused rat stomach assessed as inhibition of pentagastrin-stimulated gastric acid secretion. As to conditions: read-out: pA2 (converted). Format: functional, tissue-based.

As to `O=C(CN1N=C(C2CCCCC2)c2ccccc2N(CC(=O)N2CCCC2)C1=O)Nc1cccc(C(=O)O)c1`, the results for the inhibition constant (Ki) in experiment [1] and in experiment [2] were 16.2 nM and greater than 10000 nM, respectively.
As for `CC(C)(C)C(=O)CN1C(=O)N(CC(=O)Nc2cccc(SCc3nn[nH]n3)c2)N=C(C2CCCCC2)c2ccccc21`, the values for the Ki in experiment [1] and in experiment [3] were 0.708 nM and 389 nM, respectively.
Take `CC(C)(C)C(=O)CN1C(=O)N(CC(=O)Nc2cccc(S(=O)(=O)CC(=O)O)c2)N=C(C2CCCCC2)c2ccccc21`: the Ki in experiment [1] is 4.27 nM; in experiment [2], greater than 10000 nM.
Take `CC(C)(C)C(=O)CN1C(=O)N(CC(=O)Nc2ccc3c(ccn3CC(=O)O)c2)N=C(C2CCCCC2)c2ccccc21`: the values for the Ki in experiment [1] and in experiment [3] were 0.776 nM and 2510 nM, respectively.
Turning to `CC(C)(C)C(=O)CN1C(=O)N(CC(=O)Nc2cccc(-c3cccc(C(=O)O)c3)c2)N=C(C2CCCCC2)c2ccccc21`, the Ki was 1.58 nM in experiment [1] and 550 nM in experiment [3].
On to `CC(C)(C)C(=O)CN1C(=O)N(CC(=O)Nc2cccc(OCC(=O)O)c2)N=C(C2CCCCC2)c2ccccc21`, for which the values for the inhibition constant Ki in experiment [1] and in experiment [2] were 5.5 nM and 4070 nM, respectively.
As for `CC(C)(C)C(=O)CN1C(=O)N(CC(=O)Nc2cccc(-c3ccc(C(=O)O)o3)c2)N=C(C2CCCCC2)c2ccccc21`, the Ki was 0.245 nM in experiment [1] and 457 nM in experiment [3].
Take `CC(C)(C)C(=O)CN1C(=O)N(CC(=O)Nc2ccc3cnn(CC(=O)O)c3c2)N=C(C2CCCCC2)c2ccccc21`: the Ki in experiment [1] was 0.832 nM; in experiment [3] it was 2140 nM.
Consider `CC(C)(C)C(=O)CN1C(=O)N(CC(=O)Nc2cccc(C(=O)O)c2)N=C(C23CC4CC(CC(C4)C2)C3)c2ccccc21`, for which the values for the Ki in experiment [1] and in experiment [2] were 24 nM and 372 nM, respectively.
Regarding `CC(C)(C)C(=O)CN1C(=O)N(CC(=O)Nc2cccc(CCC(=O)O)c2)N=C(C2CCCCC2)c2ccccc21`, the values for the Ki in experiment [1] and in experiment [3] were 1.86 nM and greater than 10000 nM, respectively.
For `CC(C)(C)C(=O)CN1C(=O)N(CC(=O)Nc2ccc3c(cnn3CC(=O)O)c2)N=C(C2CCCCC2)c2ccccc21`, in that order: 9.33 nM and 8130 nM.
For `CC(C)(C)C(=O)CN1C(=O)N(CC(=O)Nc2cccc(-c3csc(C(=O)O)n3)c2)N=C(C2CCCCC2)c2ccccc21`, in that order: 0.661 nM and greater than 10000 nM.
As to `CN(c1cccc(NC(=O)CN2N=C(C3CCCCC3)c3ccccc3N(CC(=O)C(C)(C)C)C2=O)c1)c1nn[nH]n1`, the Ki in experiment [1] was 1.95 nM; in experiment [4] it was 4.68 nM; in experiment [2], 6460 nM. In addition, in experiment [5], the Kb was 24 nM.
On to `CC(C)(C)C(=O)CN1C(=O)N(CC(=O)Nc2ccc3ncn(CC(=O)O)c3c2)N=C(C2CCCCC2)c2ccccc21`, for which the inhibition constant Ki is 17 nM in experiment [1] and greater than 10000 nM in experiment [3].
Consider `O=C(CN1N=C(C2CCCCC2)c2ccccc2N(CC(=O)C23CC4CC(CC(C4)C2)C3)C1=O)Nc1cccc(C(=O)O)c1`, for which the Ki in experiment [1] was 5.62 nM; in experiment [2] it was 1910 nM.
For the molecule `CC(C)(C)C(=O)CN1C(=O)N(CC(=O)Nc2cccc(-c3nc(C(=O)O)co3)c2)N=C(C2CCCCC2)c2ccccc21`, the Ki is 0.363 nM in experiment [1] and 661 nM in experiment [3].
Take `CC(C)(C)C(=O)CN1C(=O)N(CC(=O)Nc2cccc(C(=O)NS(C)(=O)=O)c2)N=C(C2CCCCC2)c2ccccc21`: the Ki in experiment [1] was 3.89 nM; in experiment [2] it was 2950 nM.
Take `CC(C)(C)C(=O)CN1C(=O)N(CC(=O)Nc2ccc3ccn(CC(=O)O)c3c2)N=C(C2CCCCC2)c2ccccc21`: the Ki in experiment [1] was 0.295 nM; in experiment [3], 550 nM; in experiment [4], 2.4 nM.
For `CCOCCN1C(=O)N(CC(=O)Nc2cccc(C(=O)O)c2)N=C(C2CCCCC2)c2ccccc21`, in experiment [1], the Ki is 490 nM.
Consider `CC(C)(C)C(=O)CN1C(=O)N(CC(=O)Nc2cccc(C(=O)O)c2)N=C(C2CCCCCC2)c2ccccc21`, for which the Ki is 4.79 nM in experiment [1] and 5750 nM in experiment [2].
`O=C(CN1N=C(C2CCCCC2)c2ccccc2N(CC(=O)C2CCCCC2)C1=O)Nc1cccc(C(=O)O)c1`: the values for the Ki in experiment [1] and in experiment [3] were 0.794 nM and 7940 nM, respectively.
In the case of `CC(C)(C)C(=O)CN1C(=O)N(CC(=O)Nc2cccc(C(=O)O)c2)N=C(C2CCCC2)c2ccccc21`, the results for the Ki in experiment [1] and in experiment [2] were 24 nM and greater than 10000 nM, respectively.
In the case of `CC(C)CCN1C(=O)N(CC(=O)Nc2cccc(C(=O)O)c2)N=C(C2CCCCC2)c2ccccc21`, the Ki in experiment [1] is 20.4 nM; in experiment [2], greater than 10000 nM.
With `CC(C)(C)C(=O)CN1C(=O)N(CC(=O)Nc2cccc3c2cnn3CC(=O)O)N=C(C2CCCCC2)c2ccccc21`, the Ki was 2.75 nM in experiment [1] and 6920 nM in experiment [3].
Consider `CC(C)(C)C(=O)CN1C(=O)N(CC(=O)Nc2cccc(-c3cccn3CC(=O)O)c2)N=C(C2CCCCC2)c2ccccc21`, for which the Ki in experiment [1] is 0.912 nM.
For `CC(C)(C)C(=O)CN1C(=O)N(CC(=O)Nc2cccc(C(=O)O)c2)N=C(C2CCCCC2)c2ccccc21`, the Ki in experiment [2] was greater than 10000 nM.
In the case of `CC(C)(C)C(=O)CN1C(=O)N(CC(=O)Nc2cccc3c2ccn3CC(=O)O)N=C(C2CCCCC2)c2ccccc21`, the Ki in experiment [1] is 6.03 nM; in experiment [3], greater than 10000 nM.
`CC(=O)CN1C(=O)N(CC(=O)Nc2cccc(C(=O)O)c2)N=C(C2CCCCC2)c2ccccc21`: the Ki is 331 nM in experiment [1] and greater than 10000 nM in experiment [2].
`O=C(O)CCc1cccc(NC(=O)CN2N=C(C3CCCCC3)c3ccccc3N(CC(=O)C3CCCC3)C2=O)c1`: the Ki in experiment [1] was 0.339 nM; in experiment [3] it was 2510 nM; in experiment [4] it was 4.27 nM.
Consider `CC(C)(C)C(=O)CN1C(=O)N(CC(=O)Nc2cccc(Cc3nnn[nH]3)c2)N=C(C2CCCCC2)c2ccccc21`, for which the Ki is 4.68 nM in experiment [1] and greater than 10000 nM in experiment [3].
For `CN(CC(=O)O)c1cccc(NC(=O)CN2N=C(C3CCCCC3)c3ccccc3N(CC(=O)C(C)(C)C)C2=O)c1`, in that order: 1.07 nM and 6460 nM.
With `O=C(O)Cc1cccc(NC(=O)CN2N=C(C3CCCCC3)c3ccccc3N(CC(=O)C3CCCC3)C2=O)c1`, the values for the Ki in experiment [1], in experiment [3] and in experiment [4] were 0.282 nM, greater than 10000 nM and 6.31 nM, respectively.
Consider `Cc1ccccc1C(=O)CN1C(=O)N(CC(=O)Nc2cccc(C(=O)O)c2)N=C(C2CCCCC2)c2ccccc21`, for which the results for the inhibitory constant (Ki) in experiment [1], in experiment [4] and in experiment [2] were 7.59 nM, 26.3 nM and greater than 10000 nM, respectively.
As for `CC(C)(C)C(=O)CN1C(=O)N(CC(=O)Nc2cccc(-c3nn[nH]n3)c2)N=C(C2CCCCC2)c2ccccc21`, the Ki in experiment [1] is 1 nM; in experiment [3], 1740 nM; in experiment [4], 3.16 nM. Moreover, the Kb in experiment [5] is 7.76 nM.
`CN1C(=O)N(CC(=O)Nc2cccc(C(=O)O)c2)N=C(C2CCCCC2)c2ccccc21`: the Ki is 1200 nM in experiment [1] and greater than 10000 nM in experiment [2].
For the molecule `CC(C)(C)C(=O)CN1C(=O)N(CC(=O)Nc2cccc(NCC(=O)O)c2)N=C(C2CCCCC2)c2ccccc21`, the Ki in experiment [1] is 6.17 nM; in experiment [2] it was 8510 nM.
`O=C(O)CSc1cccc(NC(=O)CN2N=C(C3CCCCC3)c3ccccc3N(CC(=O)C3CCCC3)C2=O)c1`: the Ki in experiment [3] was 2090 nM; in experiment [4], 4.79 nM.
In the case of `CC(C)(C)C(=O)CN1C(=O)N(CC(=O)Nc2cccc(-c3cn(CC(=O)O)cn3)c2)N=C(C2CCCCC2)c2ccccc21`, the Ki in experiment [1] is 4.07 nM; in experiment [3] it was 1700 nM.

The values are drawn from ChEMBL document CHEMBL1145380, “Optimization of 1,3,4-benzotriazepine-based CCK(2) antagonists to obtain potent, orally active inhibitors of gastrin-mediated gastric acid secretion” (J Med Chem, 2007).
